Assay results published in patent US20030114362A1, “Penta-or tetrapeptide binding to somatostatin receptors and the use of the same” (Novaspin Biotech GmbH, priority 2001, published 2003).
Starred links: 1 amine or outer side, 2 acyl side, 3 side chain; linkers in the order of their positions; H or OH if unused. Non-standard residues stand in square brackets, D forms with d. Residues, ends and D or L forms follow the SMILES beside them. ξ: configuration not given here. *: point of attachment. X3 = CC1(C)O[C@H]2O[C@H](C(=O)[*:2])[C@@H](N[*:1])[C@H]2O1; X1 = CC1(C)OC2[C@H](OC(C(O)C(=O)[*:2])[C@H]2N[*:1])O1; X2 = CC1(C)OC2[C@H](O[C@H](C(=O)[*:2])[C@H]2N[*:1])O1; Bip = N[C@@H](Cc1ccc(-c2ccccc2)cc1)C(=O)O; Trt = c1ccc(C(c2ccccc2)(c2ccccc2)*)cc1; Bta = N[C@@H](Cc1csc2ccccc12)C(=O)O; ξW = NC(Cc1c[nH]c2ccccc12)C(=O)O; Thr(3ξ) = CC(O)[C@H](N)C(=O)O; ξY = NC(Cc1ccc(O)cc1)C(=O)O; Nle = CCCC[C@H](N)C(=O)O; ξF = NC(Cc1ccccc1)C(=O)O; ξK = NCCCCC(N)C(=O)O; Bn = c1ccc(C*)cc1

How the values were obtained:
A431 and Panc-1 = conditions: number of cell deaths after 6 h of incubation
Experimental: The Compounds shown below were tested on two cell-lines, A431 (A. T. C. C. reference No. CRL-1555, c.f. American Type Culture Collection, http://phage.atcc.org/cgi-bin/searchengine/longview.cgi?view=ce,663682,CRL-1555&text=a-431, 2001, pp. http://phage.atcc.org/cgi-bin/searchengine/longview.cgi?view-ce,663682,CRL-661555&text=a-663431; http://phage.atcc.org/cgi-bin/searchengine/longview.cgi?view=ce,663682,CRL-661555&text=a-663431) (an epidermoid cancer) and Panc-1 (A.T.C.C. reference No. CRL-1469, c.f. American Type Culture Collection, http://phage.atcc.org/cgi-bin/searchengine/longview.egi?view=ce,609764,CRL-1469&text=panc-1) (a well differentiated pancreatic adenocarcinoma), both of human origin, using the MTT (Carmichael J et al. Cancer Res. 47(4): pp. 936-42, 1987.) and MB (Oliver M H, Harrison N K, Bishop J E, Cole P J, Laurent G J; J Cell Sci 1989 March;92 ( Pt 3):513-8) assays. [drawing 25]
Each compound was tested under […]: 6 h (to exclude necrosis) and 48 h to see inhibition of proliferation and apoptosis.

[1] = system: A431 (an epidermoid cancer); conditions: A431, MB and MTT assays
Experimental: (§3) Each compound was tested under 4 conditions: 6 h (to exclude necrosis) and 48 h to see inhibition of proliferation and apoptosis.

[2] = system: Panc-1 (a well differentiated pancreatic adenocarcinoma); conditions: Panc-1, MB and MTT assays
Experimental: as §3

[3] = system: sensitive cell line Klon 2; test: XTT/PMS cytotoxicity assay, drug sensitive hepatoma cells; assay type: cell-based, rat; conditions: Klon 2, XTT/PMS, 72 hrs incubation
Source text: (§1) Rat hepatoma cells were cultivated in a F 12 medium (GibcoBRL), to which 5% of foetal calf serum had been added, in a atmosphere saturated with humidity (>95%) and having a CO2 content of 8% in air. The cell line named “Klon 2” was isolated by Venetianer et al. (Cytogentc.Cell.Genet 28:280-283, 1980). The cell line 2 (10×80)T1 is a sub-clone of Klon 2 having a moderate multi-drug resistance 8 (Pirity, Hever-Szabo and Venetianer, Cytotechnology 19:207-214, 1996). The degree of resistance of cell line 2 (10×80) was determined by a Niagara blue exclusion test, the cells being exposed to different concentrations of the following cytostatic agents for 72 hrs.
(§2) The XTT/PMS Assay (Scuderio et al., Cancer Res. 48:4827-4833, 1988; Roehm et al., J.Immun.Methods 142:257-265, 1991) was utilised to determine the cytotoxicity of the compounds. For this purpose, the viability of the sensitive cell line Klon 2 was tested in comparison with that of the multi-drug resistant cell line Klon 2 (10×80). An identical number of cells was applied to a 96 cell culture plate. […] The cell viability was determined by triple determination for each concentration by means of the XTT/PMS dye test (Scuderio et al., Cancer Res. 48:4827-4833, 1988; Roehm et al., J.Immun.Methods 142:257-265,1991). […]

[4] = system: multi-drug resistant cell line Klon 2 (10×80); test: XTT/PMS cytotoxicity assay, multidrug resistant hepatoma cells; assay type: cell-based, rat; conditions: 72 hrs incubation
Source text: as §1, §2

[5] = system: Substance P release from sensory nerve terminals; test: Release of Substance P in vitro from electrically stimulated rat tracheae (RIA); conditions: for Substance P release, stim. / inhibition of Substance P release / Substance P release, post stim. / Substance P release, pre stim.: 500 nmol; for Substance P release, stim.: electrical field stimulation 40 V, 0.1 ms, 10 Hz, 120 s; for Substance P release, stim. / Substance P release, post stim. / Substance P release, pre stim.: released amount of peptide per tissue weight; for inhibition of Substance P release: electrically evoked release; for Substance P release, post stim.: poststimulated fraction; for Substance P release, pre stim.: prestimulated fraction; for Substance P release evoked by electrical stimulation of sensory nerve terminals (in words): compared with TT-232
Experimental: Effect of TG, SGA, TR, and TT-232 on the Release of Substance P in vitro Methods:
After exsanguination the tracheae of 2-2 female Wistar rats were removed and perfused (1 ml min^−1) in an organ bath (1.8 ml) at 37° C. for 60 min with oxygenated (95% O2 and 5% CO2) Krebs solution of the following composition (in mM): NaCl 119, NaHCO3 25, KH2PO4 1.2, MgSO4 1.5, KCl 4.7, CaCl2 2.5, glucose 11. After stopping the flow the solution was changed 3 times for 8 min (prestimulated—stimulated—poststimulated). Electrical field stimulation (40 V, 0.1 ms, 10 Hz, 120 s) was performed to induce release of sensory neuropeptides from the tissue pieces in the presence or absence of SGTG, SGA, SGTH, or TT-232 (500-500 nM). The fractions were collected in ice-cold tubes and the wet weight of the tracheae were measured. Concentration of SP was determined by specific radioimmunoassay (RIA) methods developed in our laboratory (Németh, J., Oroszi, G., Thán, M., Helyes, Zs., Pintér, E., Farkas, B. and Szolcsányi, J.: Substance P radioimmunoassay for quantitative characterization of sensory neurotransmitter release. Neurobiology, 7, 437-444, 1999) and was expressed as the released amount of peptide per tissue weight.

With `C[C@@H](OC(c1ccccc1)(c1ccccc1)c1ccccc1)C1NC(=O)[C@H](CCCCN)NC(=O)[C@H](Cc2csc3ccccc23)NC(=O)[C@H](Cc2ccc(O)cc2)NC(=O)[C@H]2O[C@@H]3OC(C)(C)OC3[C@@H]2NC1=O` (some centres unmarked) [SGnc 8] as the compound, how does the Necrosis (A431 and Panc-1) read?
Its Necrosis is “some”.

What about the IC50 [1] of the same compound?
The IC50 was 50 µM.

And the IC50 [2]?
The IC50 was 40 µM.

How did the Necrosis (A431 and Panc-1) turn out when `CCCC[C@@H]1NC(=O)[C@@H](Cc2c[nH]c3ccccc23)NC(=O)[C@H](Cc2ccc(O)cc2)NC(=O)[C@H]2O[C@@H]3OC(C)(C)O[C@@H]3[C@@H]2NC(=O)[C@H]([C@@H](C)OC(c2ccccc2)(c2ccccc2)c2ccccc2)NC1=O` [SGnc 7, cyclo[-D-Trp-Nle-Thr(OTrt)-Z1-Tyr-]] (cyclo([Nle]T(Trt)[X3]Y[dW])) was run?
Its Necrosis is “none”.

And the IC50 [1]?
The IC50 was 10 µM.

And the IC50 [2]?
Its IC50 is 10 µM.

With `CC1(C)OC2[C@H](O[C@@H]3C(=O)NC(Cc4ccc(O)cc4)C(=O)N[C@@H](Cc4csc5ccccc45)C(=O)NC(CCCCN)C(=O)N[C@@H](Cc4ccc(OCc5ccccc5)cc4)C(=O)N[C@@H]23)O1` (some centres unmarked) [SGnc 51] (cyclo([Bta][ξK]Y(Bn)[X2][ξY])) as the compound, how does the Necrosis (A431 and Panc-1) read?
The Necrosis was “almost none”.

And the IC50 [1]?
Its IC50 is 35 µM.

What about the IC50 [2] of the same compound?
Its IC50 is 35 µM.

What does the source list for c[-Tyr-Trp-Lys-Thr-Z1-]?
IC50 [3]: 75 µM; IC50 [4]: 47 µM

How did the “Substance P release, stim.” value [5] turn out when `CC1(C)OC2[C@H](O[C@@H]3C(=O)N[C@@H](Cc4ccccc4)C(=O)N[C@@H](Cc4c[nH]c5ccccc45)C(=O)N[C@@H](CCCCN)C(=O)N[C@@H]23)O1` (stereo partly drawn) [SGA, cyclo[-Phe-Trp-Lys-Z1-]] was run?
The value was 4.81.

What about the “inhibition of Substance P release” value [5] of the same compound?
The value was 28.4%.

And the “Substance P release, post stim.” value [5]?
The value was 2.07.

And the “Substance P release, pre stim.” value [5]?
Its value is 1.81.

And the “Substance P release evoked by electrical stimulation of sensory nerve terminals (in words)” value [5]?
The value was “inhibited”.

For c[-D-Trp-Lys-1-Nal-Z1-Phe-] [SGnc 15], which Necrosis (A431 and Panc-1) is on record?
Its Necrosis is “some”.

And the IC50 [1]?
Its IC50 is about 110 µM.

And the IC50 [2]?
Its IC50 is about 110 µM.

c[-D-Trp-Lys-Thr(OTrt)-Z1-Tyr-] was tested. Which IC50 [3] did it give?
Its IC50 is 31 µM.

And the “Substance P release, stim.” value [5]?
Its value is 5.14.

And the “inhibition of Substance P release” value [5]?
The value was 19.3%.

What about the “Substance P release, post stim.” value [5] of the same compound?
The value was 2.31.

What about the “Substance P release, pre stim.” value [5] of the same compound?
Its value is 1.76.

What about the “Substance P release evoked by electrical stimulation of sensory nerve terminals (in words)” value [5] of the same compound?
The value was “inhibited”.

And the IC50 [4]?
The IC50 was 25 µM.

How did the Necrosis (A431 and Panc-1) turn out when c[-D-Trp-Lys-Bpa-Z1-Phe-] [SGnc 14] was run?
The Necrosis was “almost none”.

What about the IC50 [1] of the same compound?
The IC50 was about 100 µM.

And the IC50 [2]?
Its IC50 is about 100 µM.

Which results are given for `CC(OC(c1ccccc1)(c1ccccc1)c1ccccc1)[C@@H]1NC(=O)C(CCCCN)NC(=O)[C@@H](Cc2csc3ccccc23)NC(=O)C(Cc2ccc(O)cc2)NC(=O)[C@H]2O[C@@H]3OC(C)(C)OC3[C@@H]2NC1=O` (some centres unmarked) [SGnc 50]?
Necrosis (A431 and Panc-1): none; IC50 [1]: ~38 µM; IC50 [2]: ~38 µM

How did the Necrosis (A431 and Panc-1) turn out when `C[C@@H](OC(c1ccccc1)(c1ccccc1)c1ccccc1)C1NC(=O)[C@H](CCCCN)NC(=O)[C@H](Cc2ccc3ccccc3c2)NC(=O)[C@H](Cc2ccc(O)cc2)NC(=O)[C@H]2O[C@@H]3OC(C)(C)OC3[C@@H]2NC1=O` (some centres unmarked) [SGnc 10] was run?
The Necrosis was “some”.

What about the IC50 [1] of the same compound?
The IC50 was 55 µM.

And the IC50 [2]?
The IC50 was 40 µM.

How did the Necrosis (A431 and Panc-1) turn out when `CC(OC(c1ccccc1)(c1ccccc1)c1ccccc1)[C@@H]1NC(=O)C(CCCCN)NC(=O)[C@@H](Cc2c[nH]c3ccccc23)NC(=O)C(Cc2ccccc2)NC(=O)C(O)C2O[C@@H]3OC(C)(C)OC3[C@@H]2NC1=O` (stereo partly drawn) [SGnc 18, c[-D-Trp-Lys-Thr(OTrt)-Z2-Phe-]] (cyclo([Thr(3ξ)](Trt)[X1][ξF][dW][ξK])) was run?
Its Necrosis is “some”.

What about the IC50 [1] of the same compound?
The IC50 was about 50 µM.

What about the IC50 [2] of the same compound?
Its IC50 is about 50 µM.

For `CC1(C)OC2[C@H](OC3C(O)C(=O)NC(Cc4ccccc4)C(=O)N[C@H](Cc4c[nH]c5ccccc45)C(=O)NC(CCCCN)C(=O)N[C@@H](Cc4ccc(-c5ccccc5)cc4)C(=O)N[C@H]32)O1` (stereo partly drawn) [SGnc 20, cyclo[-D-Trp-Lys-Thr(OTrt)-Z2-Phe-]] (cyclo([Bip][X1][ξF][dW][ξK])), which Necrosis (A431 and Panc-1) is on record?
Its Necrosis is “some”.

And the IC50 [1]?
Its IC50 is about 60 µM.

What about the IC50 [2] of the same compound?
Its IC50 is about 60 µM.

Which results are given for `CC(OCc1ccccc1)[C@@H]1NC(=O)C(CCCCN)NC(=O)C(Cc2c[nH]c3ccccc23)NC(=O)C(Cc2ccc(O)cc2)NC(=O)[C@H]2O[C@@H]3OC(C)(C)OC3[C@@H]2NC1=O` (stereo partly drawn) [SGnc 38, cyclo[-D-Trp-Lys-Thr(OBzl)-Z1-Tyr-]] (cyclo([Thr(3ξ)](Bn)[X2][ξY][ξW][ξK]))?
Necrosis (A431 and Panc-1): some; IC50 [1]: ~50 µM; IC50 [2]: ~50 µM
